Data on six compounds can be found in patent US20060069132A1, “Azolecarboxamide herbicides” (priority 2004, published 2006).

Test [1] relates to small flower umbrella sedge. Nature of the test: Test B flooded paddy test. Particulars: 1000 g ai/ha, scale 0 to 100 (0 no effect, 100 complete control). The test is classed as in vivo, Cyperus difformis. In outline: (§1)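 Each value is a visual 0–100 response rating taken against controls 13 to 15 days after treatment in the greenhouse. Plants received formulated chemical postemergence at the 1- to 4-leaf stage or, in flooded paddy, at the 2-leaf stage.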

Test [2] relates to blackgrass. Nature of the test: Test B postemergence herbicide test. The test is classed as in vivo, Alopecurus myosuroides. In outline: as §1
Test [3] concerns rice. Nature of the test: Test C flooded paddy test. The class given is in vivo, Oryza sativa. Particulars: for Plant response rating, Rice: 500 g ai/ha, visual rating after 12 to 14 days. In outline: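 Plants were grown to the 1- to 4-leaf stage (2–18 cm) and then treated postemergence, or grown to the 2-leaf stage for the flooded paddy test. They were held in a greenhouse for 12 to 14 days and then scored by eye against controls, where 0 is no effect and 100 is complete control.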

In test [4] the test system is woolly cupgrass. Nature of the test: Test C pre-/postemergence herbicide test. The class given is in vivo, Eriochloa villosa. The following applies: preemergence. In outline: (§2)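 Visual injury scores run from 0 (no effect) to 100 (complete control), assessed relative to untreated controls 12 to 14 days after treatment in the greenhouse. Chemicals were formulated in a non-phytotoxic solvent mixture with surfactant and applied to soil after planting or to emerged plants at the 1- to 4-leaf stage.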

Test [5] deals with bermudagrass. The test can be described thus: Test C pre-/postemergence herbicide test. The class given is in vivo, Cynodon dactylon. The following applies: for Plant response rating, Bermudagrass / Plant response rating (0 = no effect, 100 = complete control), Bermudagrass: preemergence; for Bermudagrass plant response rating: Preemergence. In outline: as §2
Test [6] has as its system goosegrass. The test can be described thus: Test C pre-/postemergence herbicide test. The following applies: preemergence. The test is classed as in vivo, Eleusine indica. In outline:
as §2

Setting [7] is: 125 g ai/ha; visual rating, scale 0 (no effect) to 100 (complete control); postemergence.
[8] abbreviates: postemergence, 500 g ai/ha; scale 0 to 100, 0 is no effect, 100 is complete control.
The mark [9] stands for this setting: 125 g ai/ha, scale 0 to 100 (0 no effect, 100 complete control).
Where [10] appears, read: 250 g ai/ha, scale of 0 to 100, 0 is no effect, 100 is complete control.
[11] abbreviates: scale 0 to 100 (0 no effect, 100 complete control).
Where [12] appears, read: 125 g ai/ha, scale 0 (no effect) to 100 (complete control), visual, 12 to 14 days.
The mark [13] stands for this setting: 62 g ai/ha, scale 0 to 100, 0 no effect, 100 complete control.
Where [14] appears, read: 500 g ai/ha, scale 0 to 100, 0 no effect, 100 complete control.
Where [15] appears, read: 500 g ai/ha, scale 0 to 100 (0 no effect, 100 complete control), visual, 12 to 14 days.

On to `CCN1N=C(C(C)(C)C)CC1C(=O)Nc1cc(C(=O)N2CC=CC2)ccc1F` (racemic) [Compound 310], for which the “Sedge, Umbrella plant response rating” value in test [1] worked out at 80. The “Blackgrass plant response rating” value turned out to be 10 in test [2] (setting [7]) and 30 in test [2] (setting [8]). The “Rice plant response rating” value in test [3] (62 g ai/ha, scale 0 to 100) amounted to 35; in test [3] (setting [9]) it was 60; in test [3] (setting [10]), 70. Further, the “Plant response rating, Rice” value in test [3] (setting [11]) was determined as 80. Also, the “Plant response rating, Cupgrass, Woolly” value came to 5 in test [4] (62 g ai/ha, scale 0 to 100); 10 in test [4] (setting [12]); 70 in test [4] (250 g ai/ha, scale 0-100). Moreover, the “Plant response rating, Bermudagrass” value in test [5] (setting [13]) is 50; in test [5] (setting [12]), 85; in test [5] (250 g ai/ha, scale 0-100), 100. In addition, in test [5] (setting [14]), the “Bermudagrass plant response rating” value stood at 100. In addition, the “Plant response rating, Goosegrass” value in test [6] (62 g ai/ha, scale 0 to 100) was determined as 70; in test [6] (setting [12]), 80; in test [6] (250 g ai/ha, scale 0-100), 95; in test [6] (setting [15]) it was 95.
In the case of `CCn1nc(C(C)(C)C)cc1C(=O)Nc1ccc(OC)c(OC)c1` [Compound 298], the “Sedge, Umbrella plant response rating” value in test [1] worked out at 70. Further, the “Blackgrass plant response rating” value in test [2] (setting [7]) came to 20; in test [2] (setting [8]), 50. The “Rice plant response rating” value was 45 in test [3] (62 g ai/ha, scale 0 to 100); 60 in test [3] (setting [9]); 65 in test [3] (setting [10]). Moreover, the “Plant response rating, Rice” value in test [3] (setting [11]) worked out at 75. The “Plant response rating, Cupgrass, Woolly” value was found to be 5 in test [4] (62 g ai/ha, scale 0 to 100); 10 in test [4] (setting [12]); 30 in test [4] (250 g ai/ha, scale 0-100); 60 in test [4] (setting [15]). Further, the “Plant response rating, Bermudagrass” value in test [5] (setting [13]) stood at 50; in test [5] (setting [12]), 55; in test [5] (250 g ai/ha, scale 0-100), 80. In addition, the “Bermudagrass plant response rating” value in test [5] (setting [14]) is given as 95. Moreover, the “Plant response rating, Goosegrass” value in test [6] (62 g ai/ha, scale 0 to 100) was 85; in test [6] (setting [12]), 95; in test [6] (250 g ai/ha, scale 0-100), 100; in test [6] (setting [15]) it was 100.
As to `C=CCNC(=O)c1cccc(NC(=O)c2nn(C(C)C)nc2CC)c1` [Compound 382], in test [1], the “Sedge, Umbrella plant response rating” value amounted to 70. The “Blackgrass plant response rating” value in test [2] (setting [7]) is 10; in test [2] (setting [8]), 30. The “Rice plant response rating” value in test [3] (62 g ai/ha, scale 0 to 100) is given as 20; in test [3] (setting [9]), 55; in test [3] (setting [10]), 70. Also, the “Plant response rating, Rice” value in test [3] (setting [11]) came out at 75. Moreover, the “Plant response rating, Cupgrass, Woolly” value in test [4] (62 g ai/ha, scale 0 to 100) is given as 0; in test [4] (250 g ai/ha, scale 0-100), 20; in test [4] (setting [15]), 40. Besides, the “Plant response rating (0 = no effect, 100 = complete control), Cupgrass, Woolly” value in test [4] (125 g ai/ha) amounted to 0. In addition, the “Plant response rating, Bermudagrass” value in test [5] (setting [13]) was found to be 60; in test [5] (250 g ai/ha, scale 0-100) it was 85; in test [5] (setting [15]), 90. In test [5] (125 g ai/ha), the “Plant response rating (0 = no effect, 100 = complete control), Bermudagrass” value was found to be 80. The “Plant response rating, Goosegrass” value in test [6] (62 g ai/ha, scale 0 to 100) is reported as 75; in test [6] (250 g ai/ha, scale 0-100), 95; in test [6] (setting [15]), 100. The “Plant response rating (0 = no effect, 100 = complete control), Goosegrass” value in test [6] (125 g ai/ha) is listed as 90.
As to `CCn1nc(C2(C)CC2)cc1C(=O)Nc1cc(C(=O)N2CC=CC2)ccc1F` [Compound 301], the “Sedge, Umbrella plant response rating” value in test [1] was determined as 90. The “Blackgrass plant response rating” value in test [2] (setting [7]) worked out at 10; in test [2] (setting [8]), 40. Also, the “Rice plant response rating” value in test [3] (62 g ai/ha, scale 0 to 100) is 50; in test [3] (setting [9]), 55; in test [3] (setting [10]), 75. Besides, the “Plant response rating, Rice” value in test [3] (setting [11]) is 85. The “Plant response rating, Cupgrass, Woolly” value in test [4] (62 g ai/ha, scale 0 to 100) stood at 10; in test [4] (setting [12]), 50; in test [4] (250 g ai/ha, scale 0-100), 70; in test [4] (setting [15]) it was 90. In addition, the “Plant response rating, Bermudagrass” value was 80 in test [5] (setting [13]); 90 in test [5] (setting [12]); 90 in test [5] (250 g ai/ha, scale 0-100). Further, the “Bermudagrass plant response rating” value in test [5] (setting [14]) worked out at 95. For the same compound, the “Plant response rating, Goosegrass” value is listed as 50 in test [6] (62 g ai/ha, scale 0 to 100); 90 in test [6] (setting [12]); 100 in test [6] (250 g ai/ha, scale 0-100); 100 in test [6] (setting [15]).
For `CCn1nc(C(C)(C)C)cc1C(=O)Nc1cc(C(=O)N(C)OC)ccc1F` [Compound 244], the “Sedge, Umbrella plant response rating” value in test [1] is 80. Besides, the “Blackgrass plant response rating” value is 10 in test [2] (postemergence, 125 g ai/ha; visual rating, scale 0 (no effect) to 100 (complete control)) and 20 in test [2] (postemergence, 500 g ai/ha; visual rating, scale 0 (no effect) to 100 (complete control)). The “Rice plant response rating” value in test [3] (62 g ai/ha, scale 0 to 100 (0 no effect, 100 complete control)) is given as 40; in test [3] (setting [9]), 70; in test [3] (setting [10]) it was 75. In test [3] (setting [11]), the “Plant response rating, Rice” value is reported as 75. Moreover, the “Plant response rating, Cupgrass, Woolly” value in test [4] (62 g ai/ha, scale 0 to 100) was 65; in test [4] (setting [12]) it was 65; in test [4] (250 g ai/ha, scale 0-100) it was 85; in test [4] (setting [15]), 95. For the same compound, the “Plant response rating, Bermudagrass” value is on record as 95 in test [5] (setting [13]); 100 in test [5] (setting [12]); 100 in test [5] (250 g ai/ha, scale 0-100). In test [5] (setting [14]), the “Bermudagrass plant response rating” value stood at 100. The “Plant response rating, Goosegrass” value is on record as 70 in test [6] (62 g ai/ha, scale 0 to 100); 95 in test [6] (setting [12]); 100 in test [6] (250 g ai/ha, scale 0-100); 100 in test [6] (setting [15]).
Turning to `CCc1nn(C(C)C)nc1C(=O)Nc1cccc(C(=O)N2CCCCC2)c1` [Compound 385], the “Sedge, Umbrella plant response rating” value in test [1] came out at 80. Moreover, the results for the “Blackgrass plant response rating” value in test [2] (setting [7]) and in test [2] (setting [8]) were 10 and 30, respectively. For the same compound, the “Rice plant response rating” value in test [3] (62 g ai/ha, scale 0 to 100) is listed as 40; in test [3] (setting [9]), 50; in test [3] (setting [10]) it was 65. For the same compound, in test [3] (setting [11]), the “Plant response rating, Rice” value amounted to 80. Further, the “Plant response rating, Cupgrass, Woolly” value came to 0 in test [4] (62 g ai/ha, scale 0 to 100); 80 in test [4] (250 g ai/ha, scale 0-100); 95 in test [4] (setting [15]). Besides, in test [4] (125 g ai/ha), the “Plant response rating (0 = no effect, 100 = complete control), Cupgrass, Woolly” value is on record as 60. In addition, the “Plant response rating, Bermudagrass” value in test [5] (setting [13]) came out at 55; in test [5] (250 g ai/ha, scale 0-100), 100; in test [5] (setting [15]), 100. Further, the “Plant response rating (0 = no effect, 100 = complete control), Bermudagrass” value in test [5] (125 g ai/ha) worked out at 85. The “Plant response rating, Goosegrass” value stood at 70 in test [6] (62 g ai/ha, scale 0 to 100); 95 in test [6] (250 g ai/ha, scale 0-100); 100 in test [6] (setting [15]). The “Plant response rating (0 = no effect, 100 = complete control), Goosegrass” value in test [6] (125 g ai/ha) was 80.
